Tests used:
[1] = biological target: T1, recombinant human Cox-2 (r-hu Cox-2) (Homo sapiens, UniProt P35354); experiment: Recombinant human PGHS-2 enzyme assay (RHUCX2); format: biochemical; settings: for IC50: read-out: RHUCX2 IC50 (parenthetical value)
T1 construct: made in house; host or cells: baculovirus/Sf9 insect cells (microsomes)
T1 sequence (P35354 18-604): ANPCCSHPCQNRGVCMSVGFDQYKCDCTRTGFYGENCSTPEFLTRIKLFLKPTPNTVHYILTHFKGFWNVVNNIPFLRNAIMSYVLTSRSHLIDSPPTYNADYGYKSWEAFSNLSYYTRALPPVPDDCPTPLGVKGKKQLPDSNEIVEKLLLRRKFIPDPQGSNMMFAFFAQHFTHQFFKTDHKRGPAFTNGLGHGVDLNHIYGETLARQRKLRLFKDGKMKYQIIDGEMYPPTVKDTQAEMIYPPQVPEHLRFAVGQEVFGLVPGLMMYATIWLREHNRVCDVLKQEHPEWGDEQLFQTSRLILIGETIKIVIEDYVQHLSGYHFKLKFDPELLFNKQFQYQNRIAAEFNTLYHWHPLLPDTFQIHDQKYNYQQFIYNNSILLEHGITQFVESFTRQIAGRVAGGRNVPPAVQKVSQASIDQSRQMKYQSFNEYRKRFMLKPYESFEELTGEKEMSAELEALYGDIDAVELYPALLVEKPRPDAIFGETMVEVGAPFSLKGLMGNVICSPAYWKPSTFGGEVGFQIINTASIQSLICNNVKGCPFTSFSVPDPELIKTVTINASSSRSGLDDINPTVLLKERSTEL
Procedure: (§1) To compare the mean responses of the treatment groups, analysis of variance was applied. Percent inhibition values were determined by comparing the individual treatment mean values to the mean of the control group. Linear regression was used to estimate IC50's/ED50's in appropriate assays.
(§2) EIA reagents for prostaglandin determination were purchased from Perseptive Diagnostics, (Cambridge, Mass.). Prostaglandin E2 (PGE2) levels in lavage fluids were determined after the samples were dried under nitrogen and reconstituted with assay buffer. PGE2 levels in enzyme assays or cell culture media were measured against standards prepared in the same milieu. The immunoassays were conducted as recommended by the manufacturer. The EIA was conducted in 96 well microtiter plates (Nunc Roskilde, Denmark) and optical density was measured using a microplate reader (Vmax, Molecular Devices Corp., Menlo Park, Calif.).
(§3) Inhibition of prostaglandin biosynthesis in vitro was evaluated using recombinant human Cox-1 (r-hu Cox1) and Cox-2 (r-hu Cox-2) enzyme assays. […] The reaction was allowed to run for 2.5 minutes at room temperature prior to quenching with HCl and neutralization with NaOH. PGE2 production in the presence and absence of the drug was determined by EIA analysis. The EIA was conducted in 96 well microtiter plates (Nunc Roskilde, Denmark) and optical density was measured using a microplate reader (Vmax, Molecular Devices Corp., Menlo Park, Calif.). EIA reagents for prostaglandin determination were purchased from Perseptive Diagnostics (Cambridge, Mass.). PGE2 levels were measured against standards prepared in the same milieu. The immunoassays were conducted as recommended by the manufacturer.

[2] = biological target: T2, recombinant human Cox-1 (r-hu Cox1) (Homo sapiens, UniProt P23219); experiment: Recombinant human PGHS-1 enzyme assay (RHUCX1); format: biochemical
T2 construct: made in house; host or cells: baculovirus/Sf9 insect cells (microsomes)
Procedure: as §1, §2, §3

[3] = read-out: RHUCX2 % Inh. at Dose
[4] = read-out: RHUCX1 % Inh. at Dose

T2 sequence (P23219 24-599): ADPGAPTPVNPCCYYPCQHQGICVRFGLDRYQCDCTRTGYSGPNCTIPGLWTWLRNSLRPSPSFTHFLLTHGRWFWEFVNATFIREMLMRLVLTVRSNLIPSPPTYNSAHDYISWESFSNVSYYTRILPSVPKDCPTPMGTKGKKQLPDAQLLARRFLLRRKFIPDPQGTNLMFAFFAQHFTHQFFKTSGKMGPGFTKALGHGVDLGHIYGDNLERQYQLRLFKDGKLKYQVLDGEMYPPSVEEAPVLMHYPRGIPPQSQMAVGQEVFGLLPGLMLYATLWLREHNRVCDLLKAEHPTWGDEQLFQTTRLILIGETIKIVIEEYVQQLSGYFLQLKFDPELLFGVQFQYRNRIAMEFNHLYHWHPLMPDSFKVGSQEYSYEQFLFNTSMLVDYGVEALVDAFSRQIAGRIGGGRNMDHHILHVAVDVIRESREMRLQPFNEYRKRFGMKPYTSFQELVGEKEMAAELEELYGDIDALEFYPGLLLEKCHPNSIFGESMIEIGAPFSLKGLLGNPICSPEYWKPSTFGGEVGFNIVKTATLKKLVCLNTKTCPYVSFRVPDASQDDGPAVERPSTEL

Row | Structure (SMILES) | inhibition at 0.1 µM [1, 3] [%] | inhibition at 1 µM [1, 3] [%] | inhibition at 100 µM [2, 4] [%] | melting point [°C] | inhibition at 10 µM [2, 4] [%] | IC50 [1] [nM] | inhibition at 1 µM ([2]; 1 μM, read-out: RHUCX1 % Inh. at Dose) [%] | inhibition at 0.01 µM [1, 3] [%] | IC50 ([2]; read-out: RHUCX1 IC50 (parenthetical value)) [nM] | inhibition at 10 µM ([1]; 10 μM, read-out: RHUCX2 % Inh. at Dose) [%]
1 | CC(c1ccc(F)cc1)n1ncc(-c2ccc(S(C)(=O)=O)cc2)c(-c2ccc(F)cc2)c1=O (stereo not drawn) [Example 50, 2-(α-Methyl-4-fluorobenzyl)-4-(4-fluorophenyl)-5-[4-(methylsulfonyl)phenyl]-3(2H)-pyridazinone] | 59 | 99 | 23 | 162 to 164 | – | – | – | – | – | –
2 | CS(=O)(=O)c1ccc(-c2cnn(Cc3ccccc3)c(=O)c2-c2ccc(F)c(Cl)c2)cc1 [Example 52, 2-Benzyl-4-(3-chloro-4-fluorophenyl)-5-[4-(methylsulfonyl)phenyl]-3(2H)-pyridazinone] | 83 | 99 | – | 134 to 136 | 32 | – | – | – | – | –
3 | CS(=O)(=O)c1ccc(-c2cnn(CC(F)(F)F)c(=O)c2-c2ccc(Cl)c(Cl)c2)cc1 [Example 81, 2-(2,2,2-Trifluoroethyl)-4-(3,4-dichlorophenyl)-5-[4-(methylsulfonyl)phenyl]-3(2H)-pyridazinone] | 44 | 97 | 6 | 197 to 198 | – | – | – | – | – | –
4 | CSc1cccc(-n2ncc(-c3ccc(S(C)(=O)=O)cc3)c(-c3ccc(F)cc3)c2=O)c1 [Example 97, 2-[3-(Methylthio)phenyl]-4-(4-fluorophenyl)-5-[4-(methylsulfonyl)phenyl]-3(2H)-pyridazinone] | – | – | 35 | 196 | – | 332 | – | – | – | –
5 | CS(=O)(=O)c1ccc(-c2cnn(-c3cc(F)cc(F)c3)c(=O)c2Oc2ccc(F)cc2)cc1 [Example 111, 2-(3,5-Difluorophenyl)-4-(4-fluorophenoxy)-5-[4-(methylsulfonyl)phenyl]-3(2H)-pyridazinone] | – | – | 13 | 209 to 211 | – | 52 | – | – | – | –
6 | CS(=O)(=O)c1ccc(-c2cnn(C3CCC3)c(=O)c2-c2ccc(F)cc2)cc1 [Example 122, 2-Cyclobutyl-4-(4-fluorophenyl)-5-[4-(methylsulfonyl)phenyl]-3(2H)-pyridazinone] | – | – | 1 | 202 to 203 | – | 285 | – | – | – | –
7 | NS(=O)(=O)c1ccc(-c2cnn(Cc3ccc(F)cc3F)c(=O)c2-c2ccc(F)cc2)cc1 [Example 124, 2-(2,4-Difluorobenzl)-4-(4-fluorolphenyl)-5-[4-(aminosulfonyl)phenyl]-3(2H)-pyridazinone] | – | – | 26 | 236 to 238 | – | 44 | – | – | – | –
8 | NS(=O)(=O)c1ccc(-c2cnn(Cc3ccc(F)c(F)c3)c(=O)c2-c2ccc(F)cc2)cc1 [Example 127, 2-(3,4-Difluorobenzyl)-4-(4-fluorophenyl)-5-[4-(aminosulfonyl)phenyl]-3(2H)-pyridazinone] | 51 | 74 | – | 253 to 255 | 50 | – | 30 | – | – | –
9 | CS(=O)(=O)c1ccc(-c2cnn(C3Cc4ccccc4C3)c(=O)c2-c2ccc(F)cc2)cc1 [Example 128, 2-(2,3-Dihydro-1H-inden-2-yl)-4-(4-fluorophenl)-5-[4-(methylsulfonyl)phenyl]-3(2H)-pyridazinone] | – | – | 14 | 97 to 100 | – | 477 | – | – | – | –
10 | CC1(n2ncc(-c3ccc(S(C)(=O)=O)cc3)c(-c3ccc(F)cc3)c2=O)CCCC1 [Example 134] | – | – | 54 | 107 to 110 | 35 | 53 | – | – | – | –
11 | CC(c1cccc(F)c1)n1ncc(-c2ccc(S(N)(=O)=O)cc2)c(-c2ccc(F)cc2)c1=O (stereo not drawn) [Example 144, 2-(α-Methyl-3-fluorobenzyl)-4-(4-fluorophenyl)-5-[4-(aminosulfonyl)phenyl]-3(2H)-pyridazinone] | 78 | 88 | – | 192 to 194 | – | – | – | 65 | 58 | –
12 | NS(=O)(=O)c1ccc(-c2cnn(Cc3ccc(F)cc3)c(=O)c2-c2ccc(F)cc2)cc1 [Example 150, 2-(4-Fluorobenzyl)-4-(4-fluorophenyl)-5-[4-(aminosulfonyl)phenyl]-3(2H)-pyridazinone] | 100 | – | 56 | 237 to 239 | 39 | – | – | – | – | –
13 | CCCCC(CC)COc1c(-c2ccc(S(C)(=O)=O)cc2)cnn(-c2ccc(F)cc2)c1=O (stereo not shown) [Example 178, 2-(4-Fluorophenyl)-4-(2-ethyl-1-hexyloxy)-5-[4-(methylsulfonyl)phenyl]-3(2H)-pyridazinone] | – | – | 6 | 120 to 122 | – | – | – | – | – | 34
14 | CS(=O)(=O)c1ccc(-c2cnn(-c3cc(Cl)cc(Cl)c3)c(=O)c2-c2ccc(F)cc2)cc1 [Example 188, 2-(3,5-Dichlorophenyl)-4-(4-fluorophenyl)-5-[4-(methylsulfonyl)phenyl]-3-(2H)-pyridazinone] | – | – | 18 | 289 to 294 | – | 526 | – | – | – | –
15 | CS(=O)(=O)c1ccc(-c2cnn(-c3ccc(F)cc3)c(=O)c2Cc2ccccc2)cc1 [Example 230, 2-(4-Fluorophenyl)-4-benzyl-5-[4-(methylsulfonyl)phenyl]-3(2H)-pyridazinone] | – | – | 4 | 180 to 182 | – | 215 | – | – | – | –
16 | CS(=O)(=O)c1ccc(-c2cnn(-c3ccc(F)c(F)c3)c(=O)c2C2CCCCC2)cc1 [Example 232, 2-(3,4-Difluorophenyl)-4-cyclohexyl-5-[4-(methylsulfonyl)phenyl]-3(2H)-pyrdazinone] | – | – | 23 | 80 to 83 | – | 24 | – | – | – | –
17 | Cc1ccc(-c2c(-c3ccc(S(C)(=O)=O)cc3)cnn(-c3ccc(F)c(F)c3)c2=O)cc1 [Example 234] | – | – | 0 | 190 to 192 | – | 328 | – | – | – | –
18 | Cc1cc(-c2c(-c3ccc(S(C)(=O)=O)cc3)cnn(-c3ccc(F)c(F)c3)c2=O)ccc1F [Example 235, 2-(3,4-Difluorophenyl)-4-(4-fluoro-3-methylphenyl)-5-[4-(methylsulfonyl)phenyl]-3(2H)-pyridazinone] | – | – | 22 | 166 to 168 | – | 210 | – | – | – | –
19 | CS(=O)(=O)c1ccc(-c2cnn(CC(F)(F)F)c(=O)c2C2CCCCC2)cc1 [Example 240, 2-(2,2,2-Trifluoroethyl)-4-cyclohexyl-5-[4-(methylsulfonyl)phenyl]-3(2H)-pyridazinone] | – | – | 14 | 215 to 218 | – | 297 | – | – | – | –
20 | CS(=O)(=O)c1ccc(-c2cnn(-c3ccc(F)c(Cl)c3)c(=O)c2Cc2cccc(F)c2)cc1 [Example 249, 2-(3-Chloro-4-fluorophenyl)-4-(3-fluorobenzyl)-5-[4-(methylsulfonyl)phenyl]-3(2H)-pyridazinone] | 68 | 98 | 6 | 101 to 103 | – | – | – | 43 | – | –
21 | NS(=O)(=O)c1ccc(-c2cnn(-c3ccc(F)cc3)c(=O)c2Cc2cccc(F)c2)cc1 [Example 253, 2-(4-Fluorophenyl)-4-(3-fluorobenzyl)-5-[4-(aminosulfonyl)phenyl]-3(2H)-pyridazinone] | – | – | 77 | 199 to 202 | 29 | 272 | – | – | – | –
22 | CS(=O)(=O)c1ccc(-c2cnn(-c3ccc(F)c(F)c3)c(=O)c2C#Cc2ccccc2)cc1 [Example 254, 2-(3,4-Difluorophenyl)-4-(phenylethynyl)-5-[4-(methylsulfonyl)phenyl]-3(2H)-pyridazinone] | 48 | 84 | 7 | 211 to 213 | – | – | – | – | – | –

From US20020028938A1, “Prostaglandin endoperoxide H synthase biosynthesis inhibitors” (priority 1997, published 2002)
